Measured values published in PMC4965013, “Open Source Drug Discovery with the Malaria Box Compound Collection for Neglected Diseases and Beyond” (PLoS Pathogens, 2016).
pEC50, pIC50: −log10 of the molar value. “And” between values parts separate entries of the source, which are not always exact repeats. Identical values can stand only once.

Legend:
[1] = system: bovine Babesia and equine Babesia and Theileria parasites; assay: Babesia and Theileria fluorescence-based assay, all four species; type: cell-based, B. bovis, B. bigemina, T. equi, B. caballi; conditions: for pIC50: Babesia, range over compounds and species, read-out: IC50s for both bovine Babesia and equine Babesia and Theileria parasites
[2] = system: P. falciparum 3D7 trophozoites; assay: Metabolomic fingerprint profiling LC-MS; type: cell-based, Plasmodium falciparum; design: UDP-D-glucose / ADP-D-glucose: unit not given here; conditions: for Acetyllysine / N-acetyl-L-ornithine / N-carbamoyl-L-aspartate / NADPH / dAMP / dCMP / dTDP / dTMP / dTTP / dihydroorotate / orotate / DLH / DLS/SDL/SID / PD / PEE / PVNF / 3-phosphoglycerate / ADP-D-glucose / ATP / CDP / D-sedoheptulose-1/7-phosphate / FAD / GMP / NAD+ / NADP+ / Octoluse Bisphosphate / Pyroglutamic acid / UDP-D-glucose / UDP-D-glucuronate / UDP-N-acetyl-glucosamine / UDP / UMP / UTP / a-ketoglutarate / citrate/isocitrate / cytidine / dATP / dGMP/AMP / fumarate / glucose-1/6-phosphate / glycerate / guanine / guanosine / hypoxanthine / indole / inosine / nicotinate / ornithine / phosphoenolpyruvate / pyruvate / ribose-phosphate / sarcosine/alanine / sn-glycerol-3-phosphate / succinate/methylmalonic acid / uridine / xanthosine: S2 Table Metabolomics; for Acetyllysine: metabolite Acetyllysine; for N-acetyl-L-ornithine: metabolite N-acetyl-L-ornithine; for N-carbamoyl-L-aspartate: metabolite N-carbamoyl-L-aspartate; for NADPH: metabolite NADPH; for dAMP: metabolite dAMP; for dCMP: metabolite dCMP; for dTDP: metabolite dTDP; for dTMP: metabolite dTMP; for dTTP: metabolite dTTP; for dihydroorotate: metabolite dihydroorotate; for orotate: metabolite orotate; for DLH: peptide DLH; for DLS/SDL/SID: peptide DLS/SDL/SID; for PD: peptide PD; for PEE: peptide PEE; for PVNF: peptide PVNF; for 3-phosphoglycerate: metabolite 3-phosphoglycerate; for ADP-D-glucose: metabolite ADP-D-glucose; for ATP: metabolite ATP; for CDP: metabolite CDP; for CDP / D-sedoheptulose-1/7-phosphate / GMP / Octoluse Bisphosphate / UDP / UMP / UTP / citrate/isocitrate / dGMP/AMP / fumarate / glucose-1/6-phosphate / glycerate / guanine / guanosine / inosine / pyruvate / sarcosine/alanine / succinate/methylmalonic acid / uridine / xanthosine: change in metabolite level after compound treatment; for D-sedoheptulose-1/7-phosphate: metabolite D-sedoheptulose-1/7-phosphate; for FAD: metabolite FAD; for GMP: metabolite GMP; for NAD+: metabolite NAD+; for NADP+: metabolite NADP+; for Octoluse Bisphosphate: metabolite Octoluse Bisphosphate; for Pyroglutamic acid: metabolite Pyroglutamic acid; for UDP-D-glucose: metabolite UDP-D-glucose; for UDP-D-glucuronate: metabolite UDP-D-glucuronate; for UDP-N-acetyl-glucosamine: metabolite UDP-N-acetyl-glucosamine; for UDP: metabolite UDP; for UMP: metabolite UMP; for UTP: metabolite UTP; for a-ketoglutarate: metabolite a-ketoglutarate; for citrate/isocitrate: metabolite citrate/isocitrate; for cytidine: metabolite cytidine; for dATP: metabolite dATP; for dGMP/AMP: metabolite dGMP/AMP; for fumarate: metabolite fumarate; for glucose-1/6-phosphate: metabolite glucose-1/6-phosphate; for glycerate: metabolite glycerate; for guanine: metabolite guanine; for guanosine: metabolite guanosine; for hypoxanthine: metabolite hypoxanthine; for indole: metabolite indole; for inosine: metabolite inosine; for 2_3-Diphosphoglyceric acid / 4-phosphopantothenate / 6-phospho-D-gluconate / FMN / IMP / Pyrophosphate / Sedoheptoluse bisphosphate / cyclic-AMP / glutathione disulfide / lactate / myo-inositol: metabolite level change after treatment; for nicotinate: metabolite nicotinate; for ornithine: metabolite ornithine; for phosphoenolpyruvate: metabolite phosphoenolpyruvate; for pyruvate: metabolite pyruvate; for ribose-phosphate: metabolite ribose-phosphate; for sarcosine/alanine: metabolite sarcosine/alanine; for sn-glycerol-3-phosphate: metabolite sn-glycerol-3-phosphate; for succinate/methylmalonic acid: metabolite succinate/methylmalonic acid; for uridine: metabolite uridine; for xanthosine: metabolite xanthosine
P. falciparum = assay: EC50 listed in S2 Table Metabolomics (used to set the concentration tested); type: cell-based; conditions: Plasmodium falciparum; EC50 used for Factor_XEC50 in metabolomics; read-out: EC50_nM
PfPMT = PfPMT (Plasmodium falciparum, UniProt Q8IDQ9); assay: PfPMT gene replacement yeast growth; conditions: 100µM
[3] = system: NCI60 human tumor cell lines; assay: NCI60 5-dose (dose-response) assay; type: cell-based
Text: Columns IE-KK. NCI: Misra group (data presented first in this paper). NCI60 anti-tumor cell activity. Methods: […] These 60 cell lines, along with others, have been developed at NCI and have been maintained and distributed for research purposes by NCI for over 25 years. The experimental readout provides both inhibition of cell growth and cell kill. The screen was originally designed to prioritize agents for further evaluation. […] This is the same as for the 5-dose assay, described on http://dtp.cancer.gov/branches/btb/ivclsp.html. […] Testing beyond the initial screen: There were 133 compounds that passed threshold to proceed to 5-dose (dose-response) (data are available for the 133 compounds at the DTP public website (dtp.cancer.gov) by searching either the MMV number or NSC number). After examination of the 5-dose data, 10 compounds were selected for repeat testing based generally on potency, differential cell activity or activity on an individual cell lines or cell line panel. A summary of the data for the 10 compounds of interest is in the table below.

[4] = mean over cell lines of one experiment, listed as 766470/2

Chain of PfPMT (Q8IDQ9 whole entry): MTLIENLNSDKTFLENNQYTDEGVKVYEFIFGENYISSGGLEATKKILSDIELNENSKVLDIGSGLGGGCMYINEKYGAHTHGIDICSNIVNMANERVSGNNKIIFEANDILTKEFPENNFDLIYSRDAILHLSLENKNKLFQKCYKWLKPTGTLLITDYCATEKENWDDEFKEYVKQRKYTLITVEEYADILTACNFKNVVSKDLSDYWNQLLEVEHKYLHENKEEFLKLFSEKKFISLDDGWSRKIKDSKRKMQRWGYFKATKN

CN(C)c1ccc(N=Cc2ccc(N3CCOCC3)cc2)cc1 [MMV073843]
anti-Babesia and anti-Theileria hits, IC50 in words [1]: nanomolar IC50s
mean selectivity indices (SI) [1]: greater than 230
pIC50 [1]: 6.12 to 7.37

CCc1ccc(Nc2cc(C)c3ccc(O)cc3n2)cc1 [MMV000570]
Acetyllysine [2]: -3.5798
N-acetyl-L-ornithine [2]: -2.11
N-carbamoyl-L-aspartate [2]: -1.956
NADPH [2]: 0.5669
dAMP [2]: 0.09919
dCMP [2]: -0.6377
dTDP [2]: 0.1581
dTMP [2]: 0.002348
dTTP [2]: -0.746
dihydroorotate [2]: -1.827
orotate [2]: -1.158
DLH [2]: -3.486
DLS/SDL/SID [2]: -2.98
PD [2]: -3.426
PEE [2]: -2.976
PVNF [2]: -3.666
3-phosphoglycerate [2]: -0.3004
ADP-D-glucose [2]: -0.2531
ATP [2]: -0.4297
CDP [2]: 0.1199
D-sedoheptulose-1/7-phosphate [2]: -0.03599
FAD [2]: 0.02687
GMP [2]: -0.7921
NAD+ [2]: -0.005921
NADP+ [2]: 0.04495
Octoluse Bisphosphate [2]: -0.7521
Pyroglutamic acid [2]: 0.02528
UDP-D-glucose [2]: -0.0202
UDP-D-glucuronate [2]: -0.1762
UDP-N-acetyl-glucosamine [2]: -0.01786
UDP [2]: 0.2064
UMP [2]: -0.3865
UTP [2]: -0.5565
a-ketoglutarate [2]: -0.893
citrate/isocitrate [2]: -0.9405
cytidine [2]: 0.2459
dATP [2]: 0.202
dGMP/AMP [2]: 0.175
fumarate [2]: -1.642
glucose-1/6-phosphate [2]: -0.09278
glycerate [2]: -0.2054
guanine [2]: -0.06952
guanosine [2]: -0.3954
hypoxanthine [2]: 0.06102
indole [2]: -0.08521
inosine [2]: -0.1832
2_3-Diphosphoglyceric acid [2]: -0.3845
4-phosphopantothenate [2]: -0.2389
6-phospho-D-gluconate [2]: -0.3077
FMN [2]: -0.01655
IMP [2]: -0.277
Pyrophosphate [2]: 0.07301
Sedoheptoluse bisphosphate [2]: -0.5323
cyclic-AMP [2]: -0.9231
glutathione disulfide [2]: -0.5684
lactate [2]: -0.3085
myo-inositol [2]: -0.5155
nicotinate [2]: 0.1664
ornithine [2]: -0.4755
phosphoenolpyruvate [2]: -0.0203
pyruvate [2]: 0.06241
ribose-phosphate [2]: -0.6825
sarcosine/alanine [2]: -1.674
sn-glycerol-3-phosphate [2]: -0.5868
succinate/methylmalonic acid [2]: -0.5023
uridine [2]: -0.4463
xanthosine [2]: -1.566
pEC50 (P. falciparum): 6.71
candidate inhibitors of PfPMT activity (yeast functional assay) (PfPMT): candidate inhibitors of PfPMT activity

CC(C)CCNCC(O)Cn1c2ccccc2c2ccccc21 (centres unmarked) [MMV006787]
anti-Babesia and anti-Theileria hits, IC50 in words [1]: nanomolar IC50s

Cc1cc(N2CCN(C3CCCC3)CC2)n2c(nc3ccccc32)c1C#N [MMV006706]
anti-Babesia and anti-Theileria hits, IC50 in words [1]: nanomolar IC50s
mean selectivity indices (SI) [1]: greater than 230
pIC50 [1]: 6.12 to 7.37

COc1ccc(-c2nc3cc(Cc4ccc5[nH]c(-c6ccc(OC)cc6)nc5c4)ccc3[nH]2)cc1 [MMV007384]
Notes (NCI60 5-dose activity pattern) [3]: Colon, differential, potent
MGLI50 = Mean Growth Log I50 ([3]; 5-dose, mean over NCI60 panel): -7.34
_MID Log10GI50 [3, 4]: -7.42 Molar and -7.34 Molar
_MID Log10LC50 [3, 4]: -5.38 Molar and -5.32 Molar
_MID Log10TGI [3, 4]: -6.22 Molar and -6.17 Molar
Acetyllysine [2]: -1.262
N-acetyl-L-ornithine [2]: -1.162
N-carbamoyl-L-aspartate [2]: -0.09766
NADPH [2]: -0.9181
dAMP [2]: 0.6855
dCMP [2]: 0.07883
dTDP [2]: 0.07329
dTMP [2]: 0.1259
dTTP [2]: -0.4561
dihydroorotate [2]: 0.3461
orotate [2]: 0.3571
DLH [2]: -1.971
DLS/SDL/SID [2]: -1.761
PD [2]: -1.296
PEE [2]: -1.3661
PVNF [2]: -1.589
3-phosphoglycerate [2]: -0.215
ADP-D-glucose [2]: -0.07535
ATP [2]: -0.4674
CDP [2]: -0.349
D-sedoheptulose-1/7-phosphate [2]: -0.5757
FAD [2]: -0.3245
GMP [2]: -0.4418
NAD+ [2]: -0.0839
NADP+ [2]: -0.1415
Octoluse Bisphosphate [2]: -0.7079
Pyroglutamic acid [2]: 1.1726
UDP-D-glucose [2]: -0.1169
UDP-D-glucuronate [2]: -0.3283
UDP-N-acetyl-glucosamine [2]: -0.1799
UDP [2]: -0.2172
UMP [2]: -0.3886
UTP [2]: -0.61
a-ketoglutarate [2]: 0.7257
citrate/isocitrate [2]: 1.281
cytidine [2]: 0.03237
dATP [2]: -0.2668
dGMP/AMP [2]: 0.1319
fumarate [2]: 0.03505
glucose-1/6-phosphate [2]: 0.02257
glycerate [2]: 0.3902
guanine [2]: 0.5342
guanosine [2]: 0.3398
hypoxanthine [2]: 1.128
indole [2]: 0.6274
inosine [2]: 0.7464
2_3-Diphosphoglyceric acid [2]: -0.7853
4-phosphopantothenate [2]: 0.02171
6-phospho-D-gluconate [2]: -0.4966
FMN [2]: -0.1132
IMP [2]: -0.008592
Pyrophosphate [2]: -0.8081
Sedoheptoluse bisphosphate [2]: -0.4298
cyclic-AMP [2]: -0.3368
glutathione disulfide [2]: -0.6284
lactate [2]: 0.4073
myo-inositol [2]: -0.09775
nicotinate [2]: 1.038
ornithine [2]: 0.535
phosphoenolpyruvate [2]: 0.008692
pyruvate [2]: 0.9693
ribose-phosphate [2]: -0.5692
sarcosine/alanine [2]: -0.2789
sn-glycerol-3-phosphate [2]: -0.4175
succinate/methylmalonic acid [2]: -0.1567
uridine [2]: 0.8329
xanthosine [2]: 0.2641
pEC50 (P. falciparum): 6.75
candidate inhibitors of PfPMT activity (yeast functional assay) (PfPMT): candidate inhibitors of PfPMT activity

CCOc1ccc(CN2CCN(CC(O)COc3ccc(OCC(O)CN4CCN(Cc5ccc(OCC)cc5)CC4)cc3)CC2)cc1 (centres unmarked) [MMV007092]
anti-Babesia and anti-Theileria hits, IC50 in words [1]: nanomolar IC50s

Cn1c(=O)n(C)c2cc(CNCCNc3ccnc4cc(Cl)ccc34)ccc21 [MMV665875]
anti-Babesia and anti-Theileria hits, IC50 in words [1]: nanomolar IC50s
mean selectivity indices (SI) [1]: greater than 230
pIC50 [1]: 6.12 to 7.37

CCCC(c1nnnn1C1CCCCC1)N1CCN(C(=O)c2ccco2)CC1 (centres unmarked) [MMV666093]
anti-Babesia and anti-Theileria hits, IC50 in words [1]: nanomolar IC50s
mean selectivity indices (SI) [1]: greater than 230
pIC50 [1]: 6.12 to 7.37

CC(C)(C)CC(C)(C)NCC(O)COc1ccc(Cl)cc1Cl (centres unmarked) [MMV396794]
anti-Babesia and anti-Theileria hits, IC50 in words [1]: nanomolar IC50s
